Experimental data: PubChem BioAssay (NCI)
Values joined by “and” are separate entries in the source; they are usually repeats but may differ in a detail not shown here. Equal entries are not always repeated.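 Cells were grown in 96-well plates and exposed to each compound for 48 hours at five concentrations; endpoints were interpolated linearly between bracketing concentrations, or set to the highest concentration if not reached. GI50 marks 50% less growth. TGI denotes the concentration required for complete inhibition of growth.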

Assays:
Experiment in all cases: NCI-60 cell line screen, 48 h
PC-3 prostate = tested on: PC-3 prostate
SK-MEL-28 melanoma = tested on: SK-MEL-28 melanoma
SR leukemia = tested on: SR leukemia
IGROV1 ovarian = tested on: IGROV1 ovarian
SK-OV-3 ovarian = tested on: SK-OV-3 ovarian
DU-145 prostate = tested on: DU-145 prostate
HOP-92 NSCLC = tested on: HOP-92 NSCLC
SN12C renal = tested on: SN12C renal
OVCAR-5 ovarian = tested on: OVCAR-5 ovarian
K-562 leukemia = tested on: K-562 leukemia

| Compound | GI50 (PC-3 prostate) | TGI (PC-3 prostate) | GI50 (SK-MEL-28 melanoma) | TGI (SK-MEL-28 melanoma) | GI50 (SR leukemia) | TGI (SR leukemia) | GI50 (IGROV1 ovarian) | TGI (IGROV1 ovarian) | GI50 (SK-OV-3 ovarian) | TGI (SK-OV-3 ovarian) | GI50 (DU-145 prostate) | TGI (DU-145 prostate) | GI50 (HOP-92 NSCLC) | TGI (HOP-92 NSCLC) | GI50 (SN12C renal) | TGI (SN12C renal) | GI50 (OVCAR-5 ovarian) | TGI (OVCAR-5 ovarian) | GI50 (K-562 leukemia) | TGI (K-562 leukemia) |
| --- | --- | --- | --- | --- | --- | --- | --- | --- | --- | --- | --- | --- | --- | --- | --- | --- | --- | --- | --- | --- |
| CCOC(=O)c1sc2ncn(Cc3cccc(Cl)c3)c(=O)c2c1C | 13.1 µM | 25.8 µM | 16.8 µM | 30.4 µM | 3.33 µM | 12.7 µM | 8.89 µM | 21.2 µM | 17.4 µM | 31.2 µM | 17.7 µM | 31.5 µM | 12.2 µM | 24.5 µM | 15.3 µM | 28.6 µM | 17.4 µM | 31.2 µM | 12.3 µM | 24.8 µM |
| Cc1c2ncccc2c(C)c2c1[nH]c1ccc(O)cc12 | 7.27 µM and 5.01 µM | 13.7 µM and 12.2 µM | – | 27.3 µM | 2.91 µM and 2.48 µM | 7.31 µM and 18.9 µM | 7.29 µM and 11.6 µM | 21.5 µM and 102 µM | – | 11.4 µM | 5.31 µM | 17.9 µM | – | 17.3 µM | 5.99 µM and 5.39 µM | 14.2 µM and 42.5 µM | 46.6 µM | 24.4 µM and 120 µM | 5.04 µM | 20.9 µM and 50.4 µM |
| O=C(Nc1ncc([N+](=O)[O-])s1)c1cccc([N+](=O)[O-])c1 | 2.99 µM | > 100 µM | 4.64 µM | > 55.5 µM | 2.36 µM | 9.01 µM | 3.98 µM | > 56.3 µM | 3.72 µM | 35.7 µM | 9.89 µM | > 100 µM | 1.99 µM | 6.86 µM | 2.73 µM | > 53.3 µM | 12.4 µM | > 100 µM | 2.49 µM | > 40 µM |
| c1ccc(Oc2c3ccccc3nc3ccccc23)cc1 | 4.91 µM | 15.8 µM | 11.3 µM | 24.1 µM | 2.97 µM | 54.3 µM | 4.31 µM | 15.8 µM | 4.34 µM | 21 µM | 3.72 µM | 11.2 µM | 2.24 µM | 8.63 µM | 5.27 µM | 16.8 µM | 3.7 µM | 13.7 µM | 0.454 µM | 24.7 µM |
| O=C1NC(=O)[C@@H](c2cn3c4c(cccc24)CCC3)[C@@H]1c1c[nH]c2ccccc12 | 0.411 µM and 0.521 µM | > 10 µM and 37.4 µM | 1.04 µM and 0.66 µM | > 10 µM and 19.6 µM | 0.246 µM and 0.377 µM | > 10 µM and 27.6 µM | 0.592 µM and 0.833 µM | > 10 µM and 23.2 µM | 0.48 µM and 0.372 µM | > 10 µM and 12.2 µM | 0.417 µM and 0.442 µM | > 10 µM and 6.81 µM | 0.354 µM and 1.68 µM | > 10 µM and 25.5 µM | 0.556 µM and 0.888 µM | > 10 µM and 15.9 µM | 0.652 µM and 1.1 µM | > 10 µM and 22.2 µM | 0.182 µM and 0.312 µM | > 10 µM and 18.6 µM |
| CC(=O)C(C(=N)C#N)C(=O)Nc1ccccc1 (stereo not given) | – | > 100 µM | – | > 100 µM | – | > 100 µM | – | > 100 µM | – | > 100 µM | – | > 100 µM | – | > 100 µM | – | > 100 µM | – | > 100 µM | – | > 100 µM |
| CC1=C(C(=O)Nc2ccc(F)c(Cl)c2)C(c2cccc(O)c2)NC(=S)N1 (stereo not given) | 32.1 µM | > 50 µM | > 50 µM | > 50 µM | 16.4 µM | > 50 µM | 22.9 µM | > 50 µM | 16.8 µM | > 50 µM | > 50 µM | > 50 µM | > 50 µM | > 50 µM | 12.7 µM | 39.2 µM | 17 µM | > 50 µM | 16 µM | 42.5 µM |
| O=C(CSc1nc2ccc([N+](=O)[O-])cc2[nH]1)Nc1cccc(C(F)(F)F)c1 | 2.47 µM | 11.9 µM | 2.34 µM | 13.5 µM | 3.02 µM | > 43.7 µM | 2.87 µM | 14.7 µM | 1.66 µM | 5.86 µM | 3.54 µM | 15 µM | 0.3 µM | 2.82 µM | 2.18 µM | 10.6 µM | 2.62 µM | 11.1 µM | 2.16 µM | > 39.8 µM |
| C[C@@H](Oc1cc(-c2cnn(C3CCNCC3)c2)cnc1N)c1c(Cl)ccc(F)c1Cl | 1.35 µM | > 10 µM | 1.61 µM | 3.54 µM | 0.0453 µM | 1.09 µM | 2.17 µM | > 10 µM | 5.85 µM | > 10 µM | 2.74 µM | > 10 µM | 0.236 µM | 2.62 µM | 1.8 µM | > 10 µM | 1.14 µM | > 10 µM | 0.267 µM | 2.3 µM |
| COc1cccc(-c2nc(-c3ccc(NS(=O)(=O)c4ccccc4)cc3)[nH]c2-c2ccnc(Br)c2)c1 | 2.39 µM | 16.9 µM | 2.91 µM | 31 µM | 2.85 µM | > 100 µM | 3.84 µM | > 100 µM | 3.04 µM | > 100 µM | 3.69 µM | > 100 µM | 2.46 µM | 6.54 µM | 3.03 µM | > 100 µM | 4.17 µM | > 100 µM | 2.6 µM | > 100 µM |
| Clc1ccc(N2COOC3(OOC2)C2CC4CC(C2)CC3C4)cc1 | 5.11 µM | > 75.3 µM | > 30.8 µM | > 100 µM | 2.19 µM | 11.4 µM | 1.81 µM | 6.22 µM | > 100 µM | > 100 µM | 8.83 µM | > 89 µM | 14.9 µM | 43.5 µM | 5.35 µM | > 56.9 µM | 8.34 µM | > 74.8 µM | 0.543 µM | > 39.5 µM |
| O=C1NC(=O)C2=C1CCC2O (stereo not given) | – | > 100 µM | – | > 100 µM | – | > 100 µM | – | > 100 µM | – | > 100 µM | – | > 100 µM | – | > 100 µM | – | > 100 µM | – | > 100 µM | – | > 100 µM |
| OCc1ccc(N(Cc2ccc(F)cc2)C2CCC2)cc1Cl | 11.9 µM | 24.8 µM | 13.5 µM | 26.4 µM | 15.3 µM | 35 µM | 0.0698 µM | 0.339 µM | 11 µM | 23 µM | 14.2 µM | 28 µM | 0.3 µM | 6.69 µM | 11.8 µM | 24.4 µM | 0.106 µM | 0.495 µM | 1.01 µM | 15 µM |
| O=C(Nc1cccc(NS(=O)(=O)c2ccc(F)cc2)c1)c1ccc(-c2ccccc2)cc1 | 2.81 µM | 32.6 µM | 3.54 µM | 16.9 µM | 2.51 µM | 10.1 µM | 4.38 µM | 64.9 µM | 4.78 µM | 38.5 µM | 3.96 µM | > 100 µM | 1.93 µM | 8.22 µM | 2.96 µM | 11.8 µM | 7.84 µM | 75.8 µM | 2.91 µM | 24.7 µM |
| O=C1c2cccnc2-c2nc(-c3ccccn3)cc3c2c1nc1ccccc13 | 0.557 µM | 1.85 µM | 0.452 µM | 1.75 µM | – | 25.3 µM | 0.099 µM | 0.305 µM | 0.192 µM | 0.581 µM | 0.156 µM | 0.57 µM | 0.241 µM | 0.729 µM | 0.21 µM | 1.19 µM | 0.745 µM | 3.43 µM | 0.136 µM | 0.632 µM |
| O=c1oc2ccccc2cc1-c1ccc([N+](=O)[O-])cc1 | – | > 100 µM | – | > 100 µM | – | > 100 µM | – | > 100 µM | – | > 100 µM | – | > 100 µM | – | > 100 µM | – | > 100 µM | – | > 100 µM | – | > 100 µM |
| O=C(O)CSCC(=O)c1ccccc1 | – | > 100 µM | – | > 100 µM | – | > 100 µM | – | > 100 µM | – | > 100 µM | – | > 100 µM | – | > 100 µM | – | > 100 µM | – | > 100 µM | – | > 100 µM |
| CC1/C=C/C=C/CC/C=C/C=C/C=C/C=C/C(OC2OC(C)C(O)C(N)C2O)CC2OC(CC(O)C(O)CCC(O)CC(O)CC(O)CC(=O)OC(C)C(C)C1O)CC(O)C2C(=O)O (stereo not given) | 31.2 µg/mL | 36.4 µM and 75.7 µg/mL | 25.7 µg/mL | 37 µM and 46.3 µg/mL | – | 35.5 µM | 23.4 µg/mL | 32.2 µM and 52.1 µg/mL | 47.1 µg/mL | 44.4 µM and 136 µg/mL | 32.3 µg/mL | 32.4 µM and 73.5 µg/mL | 42.5 µg/mL | > 100 µM and 150 µg/mL | 23.4 µg/mL | 30.3 µM and 43.8 µg/mL | 49.5 µg/mL | 35.8 µM and 135 µg/mL | 74.9 µg/mL | > 100 µM and 150 µg/mL |
